Measured values published in US9221795B2, “Phosphatidylinositol 3-kinase inhibitors” (Gilead Sciences, Inc., priority 2013, dated 2015).

biological target: PI3Kδ (Homo sapiens (Human), UniProt O00329); test: Enzymatic activity of PI3K isoforms, TR-FRET assay (PI3Kδ); assay type: biochemical; settings: 2× Km ATP, geometric mean if more than one value
Description: Enzymatic activity of the class I PI3K isoforms in the presence of the compounds of Table 1 and Compounds X, Y and Z was measured using a time-resolved fluorescence resonance energy transfer (TR-FRET) assay. The TR-FRET assay was used to monitor formation of the product 3,4,5-inositol triphosphate molecule (PIP3) as it competed with fluorescently labeled PIP3 for binding to the GRP-1 pleckstrin homology domain protein. An increase in […] product results in a decrease in TR-FRET signal as the labeled fluorophore is displaced from the GRP-1 protein binding site.
Class I PI3K isoforms were expressed and purified as heterodimeric recombinant proteins. All assay reagents and buffers for the TR-FRET assay were purchased from Millipore. PI3K isoforms were assayed under initial rate conditions in the presence of 25 mM Hepes (pH 7.4), and 2× Km ATP (75-500 μM), 2 μM PIP2, 5% glycerol, 5 mM MgCl2, 50 mM NaCl, 0.05% (v/v) Chaps, 1 mM dithiothreitol, 1% (v/v) DMSO at the following concentrations for each isoforms: PI3Kα, PI3Kβ, and PI3Kδ between 25 and 50 pM, and PI3Kγ at 2 nM. After an assay reaction time of 30 minutes at 25° C., reactions were terminated with a final concentration of 10 mM EDTA, 10 nM labeled-PIP3, and 35 nM Europium labeled GRP-1 detector protein before reading TR-FRET on an Envision plate reader (Ex: 340 nm; Em: 615/665 nm; […] delay and 500 μs read window).
Data were normalized based on positive ([…] wortmanin) and negative (DMSO) controls. α, β, δ, and γ IC50 values were calculated from the fit of the dose-response curves to a four-parameter equation. All IC50 values represent geometric mean values if more than one value was obtained. IC50 values were reported in units of nM.

PI3Kδ, sequence (O00329 whole entry, the tested form may be a part, canonical isoform): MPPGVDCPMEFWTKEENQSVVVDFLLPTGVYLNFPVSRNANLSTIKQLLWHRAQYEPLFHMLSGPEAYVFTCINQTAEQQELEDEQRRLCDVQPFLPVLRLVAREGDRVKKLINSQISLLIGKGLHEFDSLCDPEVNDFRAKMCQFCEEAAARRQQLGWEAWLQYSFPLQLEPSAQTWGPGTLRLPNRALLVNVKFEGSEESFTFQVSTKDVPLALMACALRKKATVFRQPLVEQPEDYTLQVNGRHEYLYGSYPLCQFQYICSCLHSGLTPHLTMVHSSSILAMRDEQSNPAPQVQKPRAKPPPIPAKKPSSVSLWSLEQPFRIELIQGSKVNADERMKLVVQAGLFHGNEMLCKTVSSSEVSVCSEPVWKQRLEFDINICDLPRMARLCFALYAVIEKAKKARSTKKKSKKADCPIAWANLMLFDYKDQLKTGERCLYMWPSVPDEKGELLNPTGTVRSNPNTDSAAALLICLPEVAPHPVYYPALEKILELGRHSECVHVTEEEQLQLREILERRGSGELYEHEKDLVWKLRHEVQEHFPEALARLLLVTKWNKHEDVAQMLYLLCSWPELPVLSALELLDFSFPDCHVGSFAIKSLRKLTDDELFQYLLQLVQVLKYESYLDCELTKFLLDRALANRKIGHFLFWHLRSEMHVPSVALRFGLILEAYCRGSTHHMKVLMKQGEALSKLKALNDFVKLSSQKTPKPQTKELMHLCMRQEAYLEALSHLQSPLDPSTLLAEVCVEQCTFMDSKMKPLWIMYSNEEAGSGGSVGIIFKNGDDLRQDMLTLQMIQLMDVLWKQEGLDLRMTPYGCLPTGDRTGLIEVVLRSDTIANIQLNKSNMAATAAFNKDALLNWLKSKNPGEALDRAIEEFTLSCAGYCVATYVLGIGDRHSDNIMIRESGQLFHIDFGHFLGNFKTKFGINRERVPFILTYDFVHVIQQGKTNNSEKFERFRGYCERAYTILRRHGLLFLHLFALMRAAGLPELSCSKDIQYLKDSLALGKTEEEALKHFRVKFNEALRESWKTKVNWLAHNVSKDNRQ
PI3Kδ, sequence (P27986 whole entry partner, the tested form may be a part, canonical isoform): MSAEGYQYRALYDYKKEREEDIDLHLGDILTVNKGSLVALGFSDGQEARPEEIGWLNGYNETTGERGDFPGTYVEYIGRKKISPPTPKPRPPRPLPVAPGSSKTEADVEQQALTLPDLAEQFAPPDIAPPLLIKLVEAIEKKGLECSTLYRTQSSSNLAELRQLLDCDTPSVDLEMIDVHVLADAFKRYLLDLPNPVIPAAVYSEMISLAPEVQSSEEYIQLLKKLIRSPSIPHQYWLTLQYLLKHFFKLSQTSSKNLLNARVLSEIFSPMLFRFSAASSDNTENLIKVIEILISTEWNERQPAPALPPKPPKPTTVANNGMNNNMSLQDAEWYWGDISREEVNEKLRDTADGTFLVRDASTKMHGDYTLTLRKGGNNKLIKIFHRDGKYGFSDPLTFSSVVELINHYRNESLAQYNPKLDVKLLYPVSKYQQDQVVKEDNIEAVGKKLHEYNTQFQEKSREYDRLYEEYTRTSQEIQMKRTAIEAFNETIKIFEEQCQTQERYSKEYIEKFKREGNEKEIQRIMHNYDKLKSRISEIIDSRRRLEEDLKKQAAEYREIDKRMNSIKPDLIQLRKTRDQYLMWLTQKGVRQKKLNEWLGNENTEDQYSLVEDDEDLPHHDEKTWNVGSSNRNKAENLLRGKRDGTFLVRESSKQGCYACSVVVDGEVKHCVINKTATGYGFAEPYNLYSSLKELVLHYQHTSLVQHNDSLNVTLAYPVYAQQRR

SMILES	IC50
Cc1c(F)cncc1-n1c([C@@H](Nc2nc(N)nc(N)c2C#N)C2CC2)nc2cccc(Cl)c2c1=O (atropisomer, axis not shown) [Compound 70, (S)-2,4-diamino-6-(((5-chloro-3-(5-fluoro-4-methylpyridin-3-yl)-4-oxo-3,4-dihydroquinazolin-2-yl)(cyclopropyl)methyl)amino)pyrimidine-5-carbonitrile]	3 nM
CC(C)C[C@H](Nc1nc(N)nc(N)c1C#N)c1nc2cccc(Cl)c2c(=O)n1-c1cccnc1 [Compound 58, (S)-2,4-Diamino-6-((1-(5-chloro-4-oxo-3-(pyridin-3-yl)-3,4-dihydroquinazolin-2-yl)-3-methylbutyl)amino)pyrimidine-5-carbonitrile]	14 nM
C[C@H](Nc1nc(N)nc(N)c1C#N)c1nc2c(F)ccc(Br)c2c(=O)n1-c1cncc(F)c1 [Compound 60, (S)-2,4-diamino-6-((1-(5-bromo-8-fluoro-3-(5-fluoropyridin-3-yl)-4-oxo-3,4-dihydroquinazolin-2-yl)ethyl)amino)pyrimidine-5-carbonitrile]	1 nM
CC[C@H](Nc1nc(N)nc(N)c1C#N)c1nc2c(C#N)cc(F)cc2c(=O)n1-c1cncc(F)c1 [Compound 55, (S)-2-(1-((2,6-Diamino-5-cyanopyrimidin-4-yl)amino)propyl)-6-fluoro-3-(5-fluoropyridin-3-yl)-4-oxo-3,4-dihydroquinazoline-8-carbonitrile]	60 nM
Cc1c(F)cncc1-n1c([C@@H](Nc2nc(N)nc(N)c2C#N)C2CC2)nc2c(F)ccc(Cl)c2c1=O (atropisomer, axis not shown) [Compound 65, (S)-2,4-Diamino-6-(((5-chloro-8-fluoro-3-(5-fluoro-4-methylpyridin-3-yl)-4-oxo-3,4-dihydroquinazolin-2-yl)(cyclopropyl)methyl)amino)pyrimidine-5-carbonitrile]	42 nM
C[C@H](Nc1nc(N)nc(N)c1C#N)c1nc2c(F)ccc(Br)c2c(=O)n1-c1cccnc1 [Compound 64, (S)-2,4-diamino-6-((1-(5-bromo-8-fluoro-4-oxo-3-(pyridin-3-yl)-3,4-dihydroquinazolin-2-yl)ethyl)amino)pyrimidine-5-carbonitrile]	0.6 nM
Cc1c(F)cncc1-n1c([C@H](C)Nc2nc(N)nc(N)c2C#N)nc2cccc(F)c2c1=O (atropisomer, axis not shown) [Compound 68, (S)-2,4-diamino-6-((1-(5-fluoro-3-(5-fluoro-4-methylpyridin-3-yl)-4-oxo-3,4-dihydroquinazolin-2-yl)ethyl)amino)pyrimidine-5-carbonitrile]	7 nM

The next lines start with the values.

IC50	SMILES
2 nM	Cc1ccncc1-n1c([C@H](C)Nc2nc(N)nc(N)c2C#N)nc2cccc(C(F)(F)F)c2c1=O (atropisomer, axis not shown) [Compound 79, (S)-2,4-Diamino-6-((1-(3-(4-methylpyridin-3-yl)-4-oxo-5-(trifluoromethyl)-3,4-dihydroquinazolin-2-yl)ethyl)amino)pyrimidine-5-carbonitrile]
510 nM	Cc1c(F)cncc1-n1c([C@H](C)Nc2nc(N)nc(N)c2C#N)nc2ccc(F)cc2c1=O (atropisomer, axis not shown) [Compound 75, (S)-2,4-diamino-6-((1-(6-fluoro-3-(5-fluoro-4-methylpyridin-3-yl)-4-oxo-3,4-dihydroquinazolin-2-yl)ethyl)amino)pyrimidine-5-carbonitrile]
75 nM	Cc1cncc(-n2c([C@H](C)Nc3nc(N)nc(N)c3C#N)nc3cccc(Cl)c3c2=O)c1C (atropisomer, axis not shown) [Compound 77, (S)-2,4-diamino-6-((1-(5-chloro-3-(4,5-dimethylpyridin-3-yl)-4-oxo-3,4-dihydroquinazolin-2-yl)ethyl)amino)pyrimidine-5-carbonitrile]
